US9499550B2 (BRISTOL-MYERS SQUIBB COMPANY, priority 2012, dated 2016)
Read-outs that look alike come from different tables or passages of the source.

Tests used:
[1] = test system: HCV genotype 1a (H77 strain) replicon in HUH-7 cells; assay: HCV replicon luciferase reporter assay, genotype 1a; type: cell-based; settings: Hepatitis C virus, Huh-7, 72 h, 3 days incubation, read-out: LE_1a (EC50, range)
Procedure, shortened: (§1)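 Replicon inhibition for both genotypes was measured as Renilla luciferase signal (EnduRen, 7.5 μM final, 2 h) after 3-day, 37° C exposure of replicon-bearing HUH-7 cells in 4% FCS DMEM, 0.5% DMSO. The 1b construct carries S1179I; the 1a H77 construct carries P1496L and S2204I. Twenty-point, 3-fold dilutions were fitted four-parametrically for EC50, and CC50 was taken from multiplexed Cell Titer-Blue.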

[2] = test system: HCV genotype 1b (Con1) replicon in HUH-7 cells; assay: HCV replicon luciferase reporter assay, genotype 1b; type: cell-based; settings: Hepatitis C virus, Huh-7, 72 h, 3 days incubation, read-out: LE_1b (EC50, range)
Procedure, shortened: as §1

[3] = HCV genotype 1a replicon luciferase assay, range class
[4] = HCV genotype 1b replicon luciferase assay, range class
[5] = GETYPE1A, HCV genotype 1a replicon luciferase
[6] = GETYPE1B, HCV genotype 1b replicon luciferase
[7] = HCV genotype 1a replicon luciferase
[8] = HCV genotype 1b replicon luciferase

Row | Compound | EC50 [1, 3] [nM] | EC50 [2, 4] [nM] | EC50 [1, 7] [nM] | EC50 [2, 8] [nM] | further results
1 | CC[C@@H]1C[C@@H](C)CC/C=C\[C@@H]2C[C@@]2(C(=O)NS(=O)(=O)C2(C)CC2)NC(=O)[C@@H]2C[C@@H](Oc3nc(OC)cc4cc(OC)ccc34)CN2C(=O)[C@H]1NC(=O)OC(C)(C)C(C)(F)F [Compound 1123, 3,3-difluoro-2-methylbutan-2-yl((2R,6S,7R,9S,13aS,14aR,16aS,Z)-2-((3,6-dimethoxyisoquinolin-1-yl)oxy)-7-ethyl-9-methyl-14a-(((1-methylcyclopropyl)sulfonyl)carbamoyl)-5,16-dioxo-1,2,3,5,6,7,8,9,10,11,13a,14,14a,15,16,16a-hexadecahydrocyclopropa[e]pyrrolo[1,2-a][1,4]diazacyclopentadecin-6-yl)carbamate] | < 5.46 | < 5.46 |  |  | 
2 | CC(C)Oc1cc2c(Cl)cccc2c(O[C@@H]2C[C@H]3C(=O)N[C@]4(C(=O)NS(=O)(=O)C5(C)CC5)C[C@H]4/C=C\CC[C@@H](C)C[C@@H](C)[C@H](NC(=O)OC(C)(C)C(F)(F)F)C(=O)N3C2)n1 [Compound 1102, 1,1,1-trifluoro-2-methylpropan-2-yl((2R,6S,7R,9R,13aS,14aR,16aS,Z)-2-((5-chloro-3-isopropoxyisoquinolin-1-yl)oxy)-7,9-dimethyl-14a-(((1-methylcyclopropyl)sulfonyl)carbamoyl)-5,16-dioxo-1,2,3,5,6,7,8,9,10,11,13a,14,14a,15,16,16a-hexadecahydrocyclopropa[e]pyrrolo[1,2-a][1,4]diazacyclopentadecin-6-yl)carbamate] | < 5.46 | < 5.46 |  |  | 
3 | COc1ccc2c(Cl)cc(O[C@@H]3C[C@H]4C(=O)N[C@]5(C(=O)NS(=O)(=O)C6(C)CC6)C[C@H]5/C=C\CC[C@@H](C)C[C@@H](C)[C@H](NC(=O)OC(C)(C)C(F)(F)F)C(=O)N4C3)nc2c1 [Compound 4302] |  |  |  |  | EC50 [1, 5]: 1.01 to 5 nM; EC50 [2, 6]: 1.01 to 5 nM
4 | COCCOc1cnc(O[C@@H]2C[C@H]3C(=O)N[C@]4(C(=O)NS(=O)(=O)C5CC5)C[C@H]4/C=C\CC[C@@H](C)C[C@@H](C)[C@H](NC(=O)OC(C)(C)C)C(=O)N3C2)c2ccccc12 [Compound 1033, tert-butyl ((2R,6S,7R,9R,13aS,14aR,16aS,Z)-14a-((cyclopropylsulfonyl)carbamoyl)-2-((4-(2-methoxyethoxyl)isoquinolin-1-yl)oxy)-7,9-dimethyl-5,16-dioxo-1,2,3,5,6,7,8,9,10,11,13a,14,14a,15,16,16a-hexadecahydrocyclopropa[e]pyrrolo[1,2-a][1,4]diazacyclopentadecin-6-yl)carbamate] | < 5.46 | < 5.46 |  |  | 
5 | CCOc1ccc2c(O[C@@H]3C[C@H]4C(=O)N[C@]5(C(=O)NS(=O)(=O)C6(CF)CC6)C[C@H]5/C=C\CC[C@@H](C)C[C@@H](C)[C@H](NC(=O)OC(C)(C)C)C(=O)N4C3)nccc2c1 [Compound 5367, tert-butyl ((2R,6S,7R,9R,13aS,14aR,16aS,Z)-2-((6-ethoxyisoquinolin-1-yl)oxy)-14a-(((1-(fluoromethyl)cyclopropyl)sulfonyl)carbamoyl)-7,9-dimethyl-5,16-dioxo-1,2,3,5,6,7,8,9,10,11,13a,14,14a,15,16,16a-hexadecahydrocyclopropa[e]pyrrolo[1,2-a][1,4]diazacyclopentadecin-6-yl)carbamate] |  |  | 0.51 to 1 | 0.1 to 0.5 | 
6 | COc1ccc2c(O[C@@H]3C[C@H]4C(=O)N[C@]5(C(=O)NS(=O)(=O)C6(F)CC6)C[C@H]5/C=C\CC[C@@H](C)C[C@@H](C)[C@H](NC(=O)OC5CCCCC5)C(=O)N4C3)nccc2c1 [Compound 4037] |  |  | < 5.46 | < 5.46 | 
7 | COc1ccc2nc(C(C)C)c(O[C@@H]3C[C@H]4C(=O)N[C@]5(C(=O)NS(=O)(=O)C6CC6)C[C@H]5/C=C\CC[C@H](C)C[C@@H](C)[C@H](NC(=O)OC(C)(C)C(F)(F)F)C(=O)N4C3)nc2c1 [Compound 4318] |  |  |  |  | EC50 [1, 5]: 5.01 to 35 nM; EC50 [2, 6]: 1.01 to 5 nM
8 | COc1ccc2c(O[C@@H]3C[C@H]4C(=O)N[C@]5(C(=O)NS(=O)(=O)C6CC6)C[C@H]5/C=C\CC[C@H](C)C[C@@H](C)[C@H](NC(=O)OC(C)(C)C(F)(F)F)C(=O)N4C3)nc(-c3ccc(OC)c(F)c3)cc2c1 [Compound 3055, 1,1,1-trifluoro-2-methylpropan-2-yl((2R,6S,7R,9S,13aS,14aR,16aS,Z)-14a-((cyclopropylsulfonyl)carbamoyl)-2-((3-(3-fluoro-4-methoxyphenyl)-6-methoxyisoquinolin-1-yl)oxy)-7,9-dimethyl-5,16-dioxo-1,2,3,5,6,7,8,9,10,11,13a,14,14a,15,16,16a-hexadecahydrocyclopropa[e]pyrrolo[1,2-a][1,4]diazacyclopentadecin-6-yl)carbamate] | 4.82 to 103 | < 5.46 |  |  | 
9 | COc1ccc2c(O[C@@H]3C[C@H]4C(=O)N[C@]5(C(=O)NS(=O)(=O)C6CC6)C[C@H]5/C=C\CC[C@H](C)C[C@@H](C)[C@H](NC(=O)O[C@@H]5C[C@@H]6C[C@@H]6C5)C(=O)N4C3)nc(N3CCOCC3)cc2c1 [Compound 3104, (1R,3r,5S)-bicyclo[3.1.0]hexan-3-yl((2R,6S,7R,9S,13aS,14aR,16aS,Z)-14a-((cyclopropylsulfonyl)carbamoyl)-2-((6-methoxy-3-morpholinoisoquinolin-1-yl)oxy)-7,9-dimethyl-5,16-dioxo-1,2,3,5,6,7,8,9,10,11,13a,14,14a,15,16,16a-hexadecahydrocyclopropa[e]pyrrolo[1,2-a][1,4]diazacyclopentadecin-6-yl)carbamate] | 4.82 to 103 | 4.82 to 103 |  |  | 
10 | CCOc1cc2ccccc2c(O[C@@H]2C[C@H]3C(=O)N[C@]4(C(=O)NS(=O)(=O)C5(CF)CC5)C[C@H]4/C=C\CC[C@@H](C)C[C@@H](C)[C@H](NC(=O)OC(C)(C)C(F)(F)F)C(=O)N3C2)n1 [Compound 6112, 1,1,1-trifluoro-2-methylpropan-2-yl((2R,6S,7R,9R,13aS,14aR,16aS,Z)-2-((3-ethoxyisoquinolin-1-yl)oxy)-14a-(((1-(fluoromethyl)cyclopropyl)sulfonyl)carbamoyl)-7,9-dimethyl-5,16-dioxo-1,2,3,5,6,7,8,9,10,11,13a,14,14a,15,16,16a-hexadecahydrocyclopropa[e]pyrrolo[1,2-a][1,4]diazacyclopentadecin-6-yl)carbamate] |  |  | 1.01 to 5 | 0.51 to 1 | 
11 | COc1ccc2c(O[C@@H]3C[C@H]4C(=O)N[C@]5(C(=O)NS(=O)(=O)C6(C)CC6)C[C@H]5/C=C\CC[C@@H](C)C[C@@H](C)[C@H](NC(=O)OC(C)(C)C(F)(F)F)C(=O)N4C3)nc(OC(C)C)cc2c1 [Compound 3202, 1,1,1-trifluoro-2-methylpropan-2-yl((2R,6S,7R,9R,13aS,14aR,16aS,Z)-2-((3-isopropoxy-6-methoxyisoquinolin-1-yl)oxy)-7,9-dimethyl-14a-(((1-methylcyclopropyl)sulfonyl)carbamoyl)-5,16-dioxo-1,2,3,5,6,7,8,9,10,11,13a,14,14a,15,16,16a-hexadecahydrocyclopropa[e]pyrrolo[1,2-a][1,4]diazacyclopentadecin-6-yl)carbamate] |  |  | 1.01 to 5 | 1.01 to 5 | 
12 | COc1ccc2c(O[C@@H]3C[C@H]4C(=O)N[C@]5(C(=O)NS(=O)(=O)C6(CF)CC6)C[C@H]5/C=C\CC[C@@H](C)C[C@@H](C)[C@H](NC(=O)OC(C)(C)C(F)(F)F)C(=O)N4C3)ncc(C(F)(F)F)c2c1 [Compound 1175, 1,1,1-trifluoro-2-methylpropan-2-yl((2R,6S,7R,9R,13aS,14aR,16aS,Z)-14a-(((1-(fluoromethyl)cyclopropyl)sulfonyl)carbamoyl)-2-((6-methoxy-4-(trifluoromethyl)isoquinolin-1-yl)oxy)-7,9-dimethyl-5,16-dioxo-1,2,3,5,6,7,8,9,10,11,13a,14,14a,15,16,16a-hexadecahydrocyclopropa[e]pyrrolo[1,2-a][1,4]diazacyclopentadecin-6-yl)carbamate] | < 5.46 | < 5.46 |  |  | 
13 | COCCOc1cnc(O[C@@H]2C[C@H]3C(=O)N[C@]4(C(=O)NS(=O)(=O)C5(C)CC5)C[C@H]4/C=C\CC[C@@H](C)C[C@@H](C)[C@H](NC(=O)OC(C)(C)C(F)(F)F)C(=O)N3C2)c2ccccc12 [Compound 1038, 1,1,1-trifluoro-2-methylpropan-2-yl((2R,6S,7R,9R,13aS,14aR,16aS,Z)-2-((4-(2-methoxyethoxyl)isoquinolin-1-yl)oxy)-7,9-dimethyl-14a-(((1-methylcyclopropyl)sulfonyl)carbamoyl)-5,16-dioxo-1,2,3,5,6,7,8,9,10,11,13a,14,14a,15,16,16a-hexadecahydrocyclopropa[e]pyrrolo[1,2-a][1,4]diazacyclopentadecin-6-yl)carbamate] | < 5.46 | < 5.46 |  |  | 
14 | CCOc1cnc(O[C@@H]2C[C@H]3C(=O)N[C@]4(C(=O)NS(=O)(=O)C5(C)CC5)C[C@H]4/C=C\CC[C@@H](C)C[C@@H](C)[C@H](NC(=O)OC(C)(C)C)C(=O)N3C2)c2cc(Cl)ccc12 [Compound 4075, tert-butyl (2R,6S,7R,9R,13aS,14aR,16aS,Z)-2-(7-chloro-4-ethoxyisoquinolin-1-yloxy)-7,9-dimethyl-14a-(1-methylcyclopropylsulfonylcarbamoyl)-5,16-dioxo-1,2,3,5,6,7,8,9,10,11,13a,14,14a,15,16,16a-hexadecahydrocyclopropa[e]pyrrolo[1,2-a][1,4]diazacyclopentadecin-6-ylcarbamate] |  |  | < 5.46 | < 5.46 | 
